Source: PubChem BioAssay (NCI)
“And” between values parts separate entries of the source, which are not always exact repeats. Identical values can stand only once.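 How tested: cells in 96-well plates exposed to compound for 48 hours at five concentrations. GI50: concentration for 50% inhibition of growth. At the TGI there is no net growth.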

Legend:
Assay in all cases: DTP human tumour cell line panel, 48 h
SK-MEL-5 melanoma = test system: SK-MEL-5 melanoma
MALME-3M melanoma = test system: MALME-3M melanoma
UACC-62 melanoma = test system: UACC-62 melanoma
RPMI-8226 leukemia = test system: RPMI-8226 leukemia
A549 NSCLC = test system: A549 NSCLC
IGROV1 ovarian = test system: IGROV1 ovarian
COLO 205 colon = test system: COLO 205 colon
SNB-19 CNS = test system: SNB-19 CNS
OVCAR-5 ovarian = test system: OVCAR-5 ovarian
SW-620 colon = test system: SW-620 colon

Compound	GI50 (SK-MEL-5 melanoma)	TGI (SK-MEL-5 melanoma)	GI50 (MALME-3M melanoma)	TGI (MALME-3M melanoma)	GI50 (UACC-62 melanoma)	TGI (UACC-62 melanoma)	GI50 (RPMI-8226 leukemia)	TGI (RPMI-8226 leukemia)	GI50 (A549 NSCLC)	TGI (A549 NSCLC)	GI50 (IGROV1 ovarian)	TGI (IGROV1 ovarian)	GI50 (COLO 205 colon)	TGI (COLO 205 colon)	GI50 (SNB-19 CNS)	TGI (SNB-19 CNS)	GI50 (OVCAR-5 ovarian)	TGI (OVCAR-5 ovarian)	GI50 (SW-620 colon)	TGI (SW-620 colon)
CC(=O)N1c2ccc(-c3ccc(C(=O)O)cc3)cc2[C@H](Nc2ccc(Cl)cc2)C[C@@H]1C	0.357 µM	12.6 µM	0.168 µM	3.64 µM	0.0261 µM	11.5 µM	0.0615 µM	18.6 µM	1.23 µM	28.1 µM	0.531 µM	64.9 µM	0.0615 µM	12.8 µM	1.06 µM	> 100 µM	1.45 µM	> 46.6 µM	11.1 µM	> 62 µM
O=C(OCc1ccccc1)c1ccccc1-c1c2ccc(=O)cc-2oc2cc(OCc3ccccc3)ccc12		17.8 µM		31.4 µM		24.6 µM		57.7 µM		82.2 µM		44.3 µM		42.8 µM		> 100 µM		> 100 µM		> 100 µM
O=C(N/N=C/c1cccc(O)c1)c1ccc(C(F)(F)F)nc1Nc1cccc(C(F)(F)F)c1	1.21 µM	2.44 µM	1.36 µM	3.83 µM	1.81 µM	4.12 µM	1.32 µM	3.99 µM	2.43 µM	7.84 µM	2.65 µM	11.6 µM	1.44 µM	2.94 µM	2.51 µM	12 µM	1.63 µM	5.67 µM	1.63 µM	5.77 µM
O=C1C=C(OCC=C(Cl)Cl)C(=O)c2ccccc21	1.53 µM	3.85 µM	2.18 µM	6.11 µM	2.51 µM	7.64 µM	0.955 µM	> 20.8 µM	33.2 µM	> 100 µM	4.04 µM	23.5 µM	4.39 µM	12.1 µM	> 91.1 µM	> 100 µM	8.92 µM	> 82.1 µM	3.51 µM	11.1 µM
CC(C)Cn1cnc2c(SCc3ccccn3)nc(N)nc21		> 100 µM		> 100 µM		> 100 µM		> 100 µM		> 100 µM		> 100 µM		> 100 µM		> 100 µM		> 100 µM		> 100 µM
O=C1/C(=C/c2cccc(F)c2)CN(C(=O)C(Cl)Cl)C/C1=C\c1cccc(F)c1	0.2 µM	0.431 µM	0.218 µM	0.621 µM	0.191 µM	0.43 µM	0.0318 µM	0.169 µM	0.655 µM	2.14 µM	0.209 µM	0.531 µM	0.332 µM	1.16 µM	0.204 µM	0.604 µM	0.29 µM	0.887 µM	0.0325 µM	0.125 µM
CN1CCN(Cc2ccc(NC(=O)c3cncc(C#Cc4ncc5ccccn45)c3)cc2C(F)(F)F)CC1	3.13 µM	6.37 µM	0.772 µM	3.6 µM	3.04 µM	6.76 µM	0.858 µM	4.15 µM	1.35 µM	5.48 µM	0.892 µM	4.07 µM	0.561 µM	1.39 µM	3.09 µM	8.44 µM	1.76 µM	8.41 µM	0.842 µM	3.12 µM
C=C1C(OCCO)OC2O[C@]3(C)CCC4[C@H](C)CCC1C24OO3 (some centres undefined)	23.8 µM	> 100 µM	52.7 µM	> 100 µM	42.7 µM	> 100 µM	0.591 µM	16.5 µM	28.4 µM	> 100 µM	12.3 µM	34.9 µM	2.87 µM	14.3 µM	> 100 µM	> 100 µM	19.6 µM	> 100 µM	10.9 µM	> 100 µM
CCC(=O)Oc1ccc(/C=N/NC(N)=S)nc1	3.01 µM	77.2 µM	6.86 µM	> 100 µM	3.43 µM	> 100 µM	28.5 µM	> 100 µM	35.4 µM	> 100 µM	9.94 µM	> 100 µM	27.5 µM	> 100 µM	14.2 µM	> 100 µM	34 µM	> 100 µM	7.67 µM	> 100 µM
CCCC(CCC)C(=O)O		9570 µM	> 100 µM	> 20000 µM	> 100 µM	> 20000 µM	> 100 µM	> 20000 µM	> 100 µM	> 20000 µM	> 100 µM	> 20000 µM	> 100 µM	> 100 µM and 10300 µM	> 20000 µM	> 20000 µM	> 20000 µM	> 20000 µM	> 100 µM	> 20000 µM
CC(=O)N1CCN(C=S)CC1		> 100 µM		> 100 µM		> 100 µM		> 100 µM		> 100 µM		> 100 µM		> 100 µM		> 100 µM		> 100 µM		> 100 µM
CCN1C(=O)N(CC)C2C1NN=c1s/c(=C\c3cnc(C)n3C)c(=O)n12 (centres undefined)	1.2 µM	11.1 µM	2.96 µM	> 100 µM	1.14 µM	88 µM	3.47 µM	> 100 µM	3.99 µM	> 100 µM	4.37 µM	> 100 µM	1.63 µM	4.88 µM	3.94 µM	> 100 µM	3.68 µM	> 100 µM	2.01 µM	> 100 µM
COC(=O)C1=C(O)C(C(=O)OC)[C@@]2(O)[C@@H](C(=O)OC)C(c3ccccc3Cl)C[C@@H]1[C@@H]2C(=O)OC (some centres undefined)	11.1 µM	24.2 µM	10.6 µM	29.9 µM	2.53 µM	6.89 µM	1.88 µM	6.2 µM	9.04 µM	53.9 µM	3.52 µM	13 µM	14.1 µM	31.5 µM	16.2 µM	39.5 µM	15 µM	32.4 µM	5.46 µM	21.9 µM
C=CC(=O)Nc1cccc(Nc2nc(Nc3ccc(N4CCN(C(C)=O)CC4)cc3OC)ncc2C(F)(F)F)c1	4.12 µM and 4.3 µM	> 10 µM and 17.9 µM	8.88 µM and 3.09 µM	> 10 µM and 16.4 µM	2.7 µM	22.6 µM	4.17 µM and 3.43 µM	> 10 µM and 25.6 µM	2.52 µM and 1.81 µM	> 10 µM and 12.1 µM	1.94 µM and 2.71 µM	9.84 µM and 13.6 µM	1.86 µM and 1.78 µM	4.71 µM and 5.75 µM	5.83 µM	> 100 µM	3.15 µM and 2.29 µM	> 100 µM	3.07 µM and 2.29 µM	> 10 µM and 12.7 µM
